In ChEMBL document CHEMBL5154823, “Amphiphilic cyclic peptide [W4KR5]-Antibiotics combinations as broad-spectrum antimicrobial agents” (Eur J Med Chem, 2022):
In brackets after ≈: the same amount, converted by molar mass. Activity calls are given as the source filed them. No cut-off for these calls is given here. Where a SMILES comes first, the peptide text is derived from it.

What was measured:
Staphylococcus aureus [1] = experiment: Antibacterial activity against Staphylococcus aureus ATCC 29213 assessed as reduction in microbial growth incubated for 24 hrs by microbroth dilution method; assay type: functional
Klebsiella pneumoniae [2] = experiment: Antibacterial activity against imipenem resistant Klebsiella pneumoniae ATCC BAA 1705 assessed as reduction in microbial growth incubated for 24 hrs by microbroth dilution method; assay type: functional
Pseudomonas aeruginosa [3] = experiment: Antibacterial activity against Pseudomonas aeruginosa ATCC 27883 assessed as reduction in microbial growth incubated for 24 hrs by microbroth dilution method; assay type: functional
Pseudomonas aeruginosa [4] = experiment: Antibacterial activity against carbapenem resistant Pseudomonas aeruginosa ATCC BAA 1744 assessed as reduction in microbial growth incubated for 24 hrs by microbroth dilution method; assay type: functional
Staphylococcus aureus [5] = experiment: Synergistic antibacterial activity against Staphylococcus aureus ATCC 29213 assessed as fractional inhibitory concentration index incubated for 24 hrs in presence of meropenem by checkerboard assay; assay type: functional
Escherichia coli [6] = experiment: Synergistic antibacterial activity against Escherichia coli ATCC 25922 assessed as fractional inhibitory concentration index incubated for 24 hrs in presence of meropenem by checkerboard assay; assay type: functional
Escherichia coli [7] = experiment: Synergistic antibacterial activity against carbapenem and NDM-1 positive resistant Escherichia coli ATCC BAA 2452 assessed as fractional inhibitory concentration index incubated for 24 hrs in presence of meropenem by checkerboard assay; assay type: functional
Pseudomonas aeruginosa [8] = experiment: Synergistic antibacterial activity against Pseudomonas aeruginosa ATCC 27883 assessed as fractional inhibitory concentration index incubated for 24 hrs in presence of meropenem by checkerboard assay; assay type: functional
Klebsiella pneumoniae [9] = experiment: Synergistic antibacterial activity against Klebsiella pneumoniae ATCC 13883 assessed as fractional inhibitory concentration index incubated for 24 hrs in presence of meropenem by checkerboard assay; assay type: functional
Staphylococcus aureus [10] = experiment: Bactericidal activity against methicillin resistant Staphylococcus aureus ATCC BAA 1556 assessed as reduction in bacterial viability at MIC measured after 4 hrs by Time kill assay; assay type: functional, organism-based
Escherichia coli [11] = experiment: Bactericidal activity against Escherichia coli ATCC BAA 2452 assessed as reduction in bacterial growth at MIC measured after 8 hrs by Time kill assay; assay type: functional, organism-based
Escherichia coli [12] = experiment: Bactericidal activity against Escherichia coli ATCC BAA 2452 assessed as reduction in colony formation at MIC measured after 12 hrs by Time kill assay; assay type: functional, organism-based
Klebsiella pneumoniae [13] = experiment: Bactericidal activity against Klebsiella pneumoniae ATCC BAA 1705 assessed as decrease in bacterial growth at MIC measured after 18 hrs by Time kill assay; assay type: functional, organism-based
Cell membrane [14] = experiment: Induction of membrane disruption in Staphylococcus aureus ATCC BAA -1556 assessed as increase in PI positive cells at MIC incubated for 2 hrs by Propidium iodide staining based FACS cytometry analysis relative to control
Cell membrane [15] = experiment: Induction of membrane disruption in Staphylococcus aureus ATCC BAA -1556 assessed as increase in PI positive cells at 4 times of MIC incubated for 2 hrs by Propidium iodide staining based FACS cytometry analysis relative to control; assay type: subcellular
Staphylococcus aureus [16] = experiment: Synergistic antibacterial activity against methicillin resistant Staphylococcus aureus ATCC BAA -1556 assessed as fractional inhibitory concentration index incubated for 24 hrs in presence of tetracycline by checkerboard assay; assay type: functional
Staphylococcus aureus [17] = experiment: Synergistic antibacterial activity against methicillin resistant Staphylococcus aureus ATCC BAA -1556 assessed as fractional inhibitory concentration index incubated for 24 hrs in presence of vancomycin by checkerboard assay; assay type: functional
Pseudomonas aeruginosa [18] = experiment: Synergistic antibacterial activity against Pseudomonas aeruginosa ATCC 27883 assessed as fractional inhibitory concentration index incubated for 24 hrs in presence of tobramycin by checkerboard assay; assay type: functional
Pseudomonas aeruginosa [19] = experiment: Synergistic antibacterial activity against Pseudomonas aeruginosa ATCC 27883 assessed as fractional inhibitory concentration index incubated for 24 hrs in presence of polymyxin B by checkerboard assay; assay type: functional
Pseudomonas aeruginosa [20] = experiment: Synergistic antibacterial activity against Pseudomonas aeruginosa ATCC 27883 assessed as fractional inhibitory concentration index incubated for 24 hrs in presence of vancomycin by checkerboard assay; assay type: functional
Klebsiella pneumoniae [21] = experiment: Synergistic antibacterial activity against Klebsiella pneumoniae ATCC BAA 1705 assessed as fractional inhibitory concentration index incubated for 24 hrs in presence of tobramycin by checkerboard assay; assay type: functional
Klebsiella pneumoniae [22] = experiment: Synergistic antibacterial activity against Klebsiella pneumoniae ATCC BAA 1705 assessed as fractional inhibitory concentration index incubated for 24 hrs in presence of clindamycin by checkerboard assay; assay type: functional
Klebsiella pneumoniae [23] = experiment: Antibacterial activity against Klebsiella pneumoniae ATCC BAA 1705 assessed as polymyxin B MIC incubated for 24 hrs by microbroth dilution assay; assay type: functional
Escherichia coli [24] = experiment: Synergistic antibacterial activity against Escherichia coli ATCC 25922 assessed as fractional inhibitory concentration index incubated for 24 hrs in presence of kanamycin by checkerboard assay; assay type: functional
Klebsiella pneumoniae [25] = experiment: Antibacterial activity against Klebsiella pneumoniae ATCC BAA 1705 assessed as levofloxacin MIC incubated for 24 hrs by microbroth dilution assay; assay type: functional
Escherichia coli [26] = experiment: Synergistic antibacterial activity against Escherichia coli ATCC 25922 assessed as fractional inhibitory concentration index incubated for 24 hrs in presence of ciprofloxacin by checkerboard assay; assay type: functional
Staphylococcus aureus [27] = experiment: Antibacterial activity against Staphylococcus aureus ATCC BAA -1556 assessed as tetracycline MIC incubated for 24 hrs by microbroth dilution assay; assay type: functional
Staphylococcus aureus [28] = experiment: Antibacterial activity against Staphylococcus aureus ATCC BAA -1556 assessed clindamycin MIC incubated for 24 hrs by microbroth dilution assay; assay type: functional
Staphylococcus aureus [29] = experiment: Antibacterial activity against Staphylococcus aureus ATCC BAA -1556 assessed as vancomycin MIC incubated for 24 hrs by microbroth dilution assay; assay type: functional
Staphylococcus aureus [30] = experiment: Antibacterial activity against Staphylococcus aureus ATCC BAA -1556 assessed as daptomycin MIC incubated for 24 hrs by microbroth dilution assay; assay type: functional
Pseudomonas aeruginosa [31] = experiment: Antibacterial activity against Pseudomonas aeruginosa ATCC 27883 assessed as tobramycin MIC incubated for 24 hrs by microbroth dilution assay; assay type: functional
Pseudomonas aeruginosa [32] = experiment: Antibacterial activity against Pseudomonas aeruginosa ATCC 27883 assessed as ciprofloxacin MIC incubated for 24 hrs by microbroth dilution assay; assay type: functional
Escherichia coli [33] = experiment: Antibacterial activity against Escherichia coli ATCC 25922 assessed as tetracycline MIC incubated for 24 hrs by microbroth dilution assay; assay type: functional
Escherichia coli [34] = experiment: Antibacterial activity against Escherichia coli ATCC 25922 assessed as kanamycin MIC incubated for 24 hrs by microbroth dilution assay; assay type: functional
Escherichia coli [35] = experiment: Antibacterial activity against Escherichia coli ATCC 25922 assessed as levofloxacin MIC incubated for 24 hrs by microbroth dilution assay; assay type: functional
Escherichia coli [36] = experiment: Antibacterial activity against Escherichia coli ATCC 25922 assessed as ciprofloxacin MIC incubated for 24 hrs by microbroth dilution assay; assay type: functional
Klebsiella pneumoniae [37] = experiment: Antibacterial activity against Klebsiella pneumoniae ATCC BAA 1705 assessed as tobramycin MIC incubated for 24 hrs by microbroth dilution assay; assay type: functional
Klebsiella pneumoniae [38] = experiment: Antibacterial activity against Klebsiella pneumoniae ATCC BAA 1705 assessed as vancomycin MIC incubated for 24 hrs by microbroth dilution assay; assay type: functional
Klebsiella pneumoniae [39] = experiment: Antibacterial activity against Klebsiella pneumoniae ATCC BAA 1705 assessed as daptomycin MIC incubated for 24 hrs by microbroth dilution assay; assay type: functional
[40] = Cytotoxicity against HEK293 cells assessed as effect on cell viability at 10 to 25 ug/ml incubated for 24 hrs by microplate reader analysis relative to control; assay type: toxicity, cell-based; settings: human, at 10 to 25 µg/mL, dose 10-25 µg/ml, read-out: Activity

## N=C(N)NCCC[C@@H]1NC(=O)[C@H](CCCNC(=N)N)NC(=O)[C@H](CCCNC(=N)N)NC(=O)[C@H](CCCNC(=N)N)NC(=O)[C@H](Cc2c[nH]c3ccccc23)NC(=O)[C@H](Cc2c[nH]c3ccccc23)NC(=O)[C@H](Cc2c[nH]c3ccccc23)NC(=O)[C@H](Cc2c[nH]c3ccccc23)NC(=O)[C@H](CCCCN)NC(=O)[C@H](CCCNC(=N)N)NC1=O (cyclo(KWWWWRRRRR))
Staphylococcus aureus [1]
  MIC: 4 µg/mL
Klebsiella pneumoniae [2]
  MIC: 32 µg/mL
Pseudomonas aeruginosa [3]
  MIC: 16 µg/mL
Pseudomonas aeruginosa [4]
  MIC: 16 µg/mL
Staphylococcus aureus [5]
  fractional inhibitory concentration index (FICI): 0.5
Escherichia coli [6]
  fractional inhibitory concentration index (FICI): 1.25
Escherichia coli [7]
  fractional inhibitory concentration index (FICI): 0.5
Pseudomonas aeruginosa [8]
  fractional inhibitory concentration index (FICI): 0.375
Klebsiella pneumoniae [9]
  fractional inhibitory concentration index (FICI): 0.625
Staphylococcus aureus [10]
  Activity: Active
Escherichia coli [11]
  Activity: Active
Escherichia coli [12]
  Activity: Active
Klebsiella pneumoniae [13]
  Activity: Active
Cell membrane [14]
  Activity: 48.2%
Cell membrane [15]
  Activity: 81.3%
Staphylococcus aureus [16]
  fractional inhibitory concentration index (FICI): 0.5
Staphylococcus aureus [17]
  fractional inhibitory concentration index (FICI): 0.5
Pseudomonas aeruginosa [18]
  fractional inhibitory concentration index (FICI): 0.5
Pseudomonas aeruginosa [19]
  fractional inhibitory concentration index (FICI): 0.375
Pseudomonas aeruginosa [20]
  fractional inhibitory concentration index (FICI): 0.531
Klebsiella pneumoniae [21]
  fractional inhibitory concentration index (FICI): 0.375
Klebsiella pneumoniae [22]
  fractional inhibitory concentration index (FICI): 0.257
Klebsiella pneumoniae [23]
  MIC: 0.063 µg/mL
Escherichia coli [24]
  fractional inhibitory concentration index (FICI): 0.375
Klebsiella pneumoniae [25]
  MIC: 8 µg/mL
Escherichia coli [26]
  fractional inhibitory concentration index (FICI): 0.625
Staphylococcus aureus [27]
  MIC: 0.0625 µg/mL
Staphylococcus aureus [28]
  MIC: 0.031 µg/mL (≈ 0.0187 µM)
Staphylococcus aureus [29]
  MIC: 0.25 µg/mL
Staphylococcus aureus [30]
  MIC: 0.5 µg/mL
Pseudomonas aeruginosa [31]
  MIC: 0.125 µg/mL
Pseudomonas aeruginosa [32]
  MIC: 0.125 µg/mL
Escherichia coli [33]
  MIC: 2 µg/mL
Escherichia coli [34]
  MIC: 4 µg/mL
Escherichia coli [35]
  MIC: 8 µg/mL
Escherichia coli [36]
  MIC: 8 µg/mL
Klebsiella pneumoniae [37]
  MIC: 2 µg/mL
Klebsiella pneumoniae [38]
  MIC: 16 µg/mL
Klebsiella pneumoniae [39]
  MIC: 16 µg/mL
[40]
  viability at 24 h: 86%
